Laboratory results from US5283243A, “Piperidinoalkylbenzoxazine and piperidinoalkylbenzothiazine compounds, and medicaments containing them” (Kali-Chemie Pharma GmbH, priority 1990, dated 1994).

Legend:
[1] = tested on: Passive cutaneous anaphylaxis (PCA); experiment: Inhibition of passive cutaneous anaphylaxis (PCA); assay type: in vivo, Sprague-Dawley rats; conditions: Rattus norvegicus, 1 h; rats, 2 × 10^-5 mole/kg dose per os, one hour before ovalbumin challenge; read-out: % inhibition of Passive cutaneous anaphylaxis (PCA)
Procedure: (§1) 1. Determining Inhibition of Passive Cutaneous Anaphylaxis (PCA) and Histamine-Induced Anaphylactoid Cutaneous Reaction
The PCA reaction is carried out following the methods described by Goose et al. (J.N. Immunology 16 (1969), 749) and by Martin et al. (Arch. Pharmacol. 316 (1981), 186).
The IgE-rich ovalbumin antiserum used in the test was obtained from immunized Brown-Norway rats. The were immunized with an intraperitoneal injection of a mixture of 100 μg of ovalbumin with a Bordetella pertussis suspension (Vaxicoq™, Manufactured by Institute Merieux, containing 5×10^9 organisms and 1.25 mg Al(OH)3). After 20 days the animals were re-immunized with a further intraperitoneal injection of a solution of 10 μg ovalbumin in 0.5 ml physiological saline solution. After a further four days the blood was removed from the animals and centrifuged. The resulting antiserum was stored at -20° C. until use.
(§2) The inhibition of the passive cutaneous anaphylaxis and of the anaphylactoid cutaneous reaction induced by histamine was determined as follows:
Sprague-Dawley rats having a body weight of 150-180 g were injected intradermally in one flank with 50 μl of a 1:75 dilution of the IgE-rich ovalbumin antiserum in physiological saline solution to passively sensitize them to ovalbumin.
24 hours after sensitization a solution of 8.25 mg/kg of ovalbumin and 26.4 mg/kg of a blue dye (Evans's Blue) was administered to the rats intravenously according to Martin et al. to trigger passive cutaneous anaphylaxis.
(§3) On the day of the experiment the test substances were dissolved in distilled water which contained 1 vol. % dimethylformamide and 1 vol. % of Tween™ 20 (=polyoxyethylene (20) sorbitan monolaurate). One hour before administration of the ovalbumin challenge, each animal was orally administered 2×10^-5 mole/kg of test substance in 0.5 ml of solution. For comparison purposes a control group received only the solvent.
(§4) The edematous anaphylactic (PCA) and anaphylactoid (histamine-induced) reactions caused by the stimulation of the intravenous ovalbumin injection, which manifested themselves by edema formation, swelling and exudation of blue dye, were evaluated 30 minutes after their initiation by the intravenous ovalbumin injection. This was done by visually determining the extent to which the blue dye emerged at the sites of edema formation. The percentage inhibition of anaphylactic and anaphylactoid reactions induced by the test substances in comparison with the reactions of the control animals not treated with any test substance was determined using comparison scales.
(§5) The results obtained using compounds of formula I according to the foregoing test methods are shown in the following Table A. The example numbers given for the compounds of formula I relate to the subsequent preparative examples.

[2] = tested on: Histamine-induced anaphylactoid reaction; experiment: Inhibition of histamine-induced anaphylactoid cutaneous reaction; assay type: in vivo, Sprague-Dawley rats; conditions: Rattus norvegicus, 1 h; rats, 2 × 10^-5 mole/kg dose per os, one hour before challenge; read-out: % inhibition of Histamine-induced anaphylactoid reaction
Procedure: as §1, §2
To determine the histamine-induced anaphylactoid skin reaction, the animals are injected intradermally in the flank opposite to the antiserum administration with 50 μl of a physiological saline solution containing 0.8 mg/ml histamine directly before the intravenous injection of the solution containing the ovalbumin and the blue dye.
as §3, §4, §5

[3] = tested on: mice; experiment: Determination of minimum toxic dose; assay type: in vivo; conditions: mouse, in vivo, 300 mg/kg, 1440 min
Procedure: 2. Determination of Minimum Toxic Dose
Maximum doses of 300 mg/kg of the test substance were administered orally to male mice weighing 20-25 g. The animals were observed carefully for 3 hours for toxicity symptoms. In addition, all symptoms and deaths were recorded over a period of 24 hours after administration. Associated symptoms were also observed and recorded. If death or severe toxic symptoms were observed, additional mice were administered increasingly lower doses. The lowest dose which produced death or severe toxic symptoms is given in the following Table B as the minimum toxic dose.

SMILES: O=C1Nc2ccccc2SC1CCCN1CCC(Nc2nc3ccccc3n2Cc2ccc(F)cc2)CC1 (stereo not drawn) [Example 8]
- inhibition in vivo at 20 µmol/kg [1]: 100%
- inhibition in vivo at 20 µmol/kg [2]: 100%
- Minimum toxic dose [3]: 300 mg/kg
